# According to patent publication US11684614B2, “Formulations of hydroxypyridonate actinide/lanthanide decorporation agents” (priority 2017, dated 2023):
# “And” between values parts separate entries of the source, which are not always exact repeats. Identical values can stand only once.
# Assay: Repeated-treatment efficacy for removing an intravenous dose of 238Pu (excretion, tissue retention, clinical observations), female and male arms
# Format: in vivo, Swiss-Webster mice
# Details: listed as 3,4,3-LI(1,2-HOPO); for % Recovered Dose - Feces per Day: male mice
# Description: The objective of this study was to characterize the efficacy of 3,4,3-L1(1,2-HOPO) at enhancing elimination from an internal plutonium burden in female and male Swiss-Webster mice administered a soluble citrate complex of ^238Pu and treated multiple times, starting at 24 hours after the exposure. Efficacy was evaluated by comparing the tissue contents, urinary and fecal excretions of ^238Pu in treated animals versus untreated animals.
# The medical countermeasure 3,4,3-L1(1,2-HOPO) was administered parenterally (ip) or orally (po) via consecutive injections or gavages (six daily or twelve twice daily) starting at 24 hours post contamination at the following four selected doses: 30 μmol/kg ip, 150 μmol/kg po, 300 μmol/kg po, and 600 μmol/kg po (equivalent to respective approximate human doses range of […], using the accepted conversion system of mouse doses into human equivalent doses—HED—based on body surface area). Oral doses also included the permeability enhancer selected during formulation development work.
# • Challenge isotope: ^238Pu • Challenge dose: 25 nCi (i.e., approximately 0.8 μCi/kg) • Route of contamination: Intravenous (iv) tail-vein • Route of treatment: Intraperitoneal Injection (ip) or Oral (po) • Frequency of treatment: Multiple (once- or twice-daily for 6 days) doses, starting 24 hr postcontamination • Treatment dose calculation: Dose calculations (mg/kg or μmol/kg) for the decorporation agent were based on the individual body weight measured after contamination. • Study Duration: 11 days, in-life
# c. […] Test article and control dose formulations were prepared within 1 day of dose administration, by weighing out the appropriate amount of test article, dispersing in vehicle. For ip solutions, the test article was used alone, while for oral suspensions, a mixture of test article and excipient (90:10, w:w) was used. The pH was adjusted to 7.0-7.4 for ip administration and 5.0-5.5 for oral administration with sterile NaOH. Dose formulations were prepared at room temperature and filter-sterilized. • Storage: 2-8° C.; refrigerated; protected from light. • Characterization: The concentration of each test article formulation was verified by high-performance liquid chromatography-mass spectrometry. • Test Article Handling: Test, reference, and control article formulations were handled with the use of eye protection, gloves, and a protective laboratory coat. • Correct Dose Assurance: The test article was weighed with calibrated balances. The administration of each dose formulation was properly documented, and the amount administered to each animal recorded.
# e. Experimental Procedures (In-Life Evaluations and Euthanasia) • Contamination: Single administration by intravenous (iv) tail-vein injection (0.2 mL injection volume) under isoflurane anesthesia. Three standard 0.2 mL injections were performed into polyethylene bottles and pre-loaded with aliquots of concentrated nitric acid on each injection day. Six female and six male mice were culled for necropsy 1 hr post-contamination and were used as standards. A11 standards were processed and counted together with the final samples to allow verification of the contamination dose. • Dose Administration: Single administration by intraperitoneal injection (ip) or oral gavage (po) under isoflurane anesthesia. • Mortality/Morbidity: Assessed at least once daily. • Clinical Observations: Recorded once daily (4 hr post-dose on day of treatment), or more often as clinical signs warranted. […]
# [1] = male arm table, Day 11 necropsy, animal group M
smiles,measurement,setting,value
"O=C(NCCCN(CCCCN(CCCNC(=O)c1cccc(=O)n1O)C(=O)c1cccc(=O)n1O)C(=O)c1cccc(=O)n1O)c1cccc(=O)n1O [3,4,3-L1(1,2-HOPO)]","% Recovered Dose Urine per Day, Day 5",[1],0.66% and 0.36% and 0.19% and 0.53% and 0.60% and 0.47% and 0.30% and 0.22%
same,"% Recovered Dose Urine per Day, Day 6",[1],0.38% and 0.35% and 0.46% and 0.26% and 0.36% and 0.41% and 0.12% and 0.61%
same,"% Recovered Dose Urine per Day, Day 7",[1],0.73% and 0.69% and 0.76% and 0.65% and 0.63% and 0.83% and 0.47% and 0.38%
same,"% Recovered Dose Urine per Day, Day 8",[1],0.40% and 0.36% and 0.42% and 0.32% and 0.43% and 0.34% and 0.74% and 0.33%
same,"% Recovered Dose Urine per Day, Day 9",[1],0.40% and 0.45% and 0.37% and 0.42% and 0.61% and 0.41% and 0.48%
same,"% Recovered Dose Urine per Day, Day 10",[1],0.12% and 0.23% and 0.16% and 0.28% and 0.21% and 0.62% and 0.46% and 0.27%
same,"% Recovered Dose Urine per Day, Day 11",[1],0.35% and 0.30% and 0.22% and 0.20% and 0.36% and 0.43% and 0.26% and 0.42%
same,% Recovered Dose - Feces per Day,"group B, feces day 1, Day 7 necropsy",4.37% and 8.32% and 7.75% and 4.30%
same,% Recovered Dose - Feces per Day,"group B, feces day 2, Day 7 necropsy",7.66% and 12.16% and 9.09% and 13.43%
same,% Recovered Dose - Feces per Day,"group B, feces day 3, Day 7 necropsy",2.15% and 3.85% and 3.59% and 3.55%
same,% Recovered Dose - Feces per Day,"group B, feces day 4, Day 7 necropsy",3.14% and 4.08% and 1.98% and 4.25%
same,% Recovered Dose - Feces per Day,"group B, feces day 5, Day 7 necropsy",1.34% and 2.97% and 0.93% and 2.49%
same,% Recovered Dose - Feces per Day,"group B, feces day 6, Day 7 necropsy",2.28% and 6.44% and 1.47% and 2.02%
same,% Recovered Dose - Feces per Day,"group B, feces day 7, Day 7 necropsy",1.46% and 2.68% and 1.21% and 2.10%
same,% Recovered Dose - Feces per Day,"group C, feces day 1, Day 7 necropsy",8.78% and 6.29% and 9.94% and 4.97%
same,% Recovered Dose - Feces per Day,"group C, feces day 2, Day 7 necropsy",15.31% and 12.37% and 22.78% and 14.58%
same,% Recovered Dose - Feces per Day,"group C, feces day 3, Day 7 necropsy",2.49% and 5.42% and 4.54% and 6.24%
same,% Recovered Dose - Feces per Day,"group C, feces day 4, Day 7 necropsy",3.01% and 3.04% and 5.87% and 3.77%
same,% Recovered Dose - Feces per Day,"group C, feces day 5, Day 7 necropsy",1.70% and 2.00% and 3.00% and 2.15%
same,% Recovered Dose - Feces per Day,"group C, feces day 6, Day 7 necropsy",1.91% and 2.24% and 2.37% and 2.32%
same,% Recovered Dose - Feces per Day,"group C, feces day 7, Day 7 necropsy",1.21% and 1.32% and 1.95% and 1.31%
same,% Recovered Dose - Feces per Day,"group E, feces day 1, Day 7 necropsy",6.19% and 11.96% and 7.28% and 11.97%
same,% Recovered Dose - Feces per Day,"group E, feces day 2, Day 7 necropsy",19.35% and 15.22% and 16.75% and 13.98%
same,% Recovered Dose - Feces per Day,"group E, feces day 3, Day 7 necropsy",3.91% and 2.72% and 3.36% and 3.87%
same,% Recovered Dose - Feces per Day,"group E, feces day 4, Day 7 necropsy",5.36% and 3.66% and 5.40% and 5.25%
same,% Recovered Dose - Feces per Day,"group E, feces day 5, Day 7 necropsy",1.97% and 1.84% and 1.67% and 1.79%
same,% Recovered Dose - Feces per Day,"group E, feces day 6, Day 7 necropsy",2.01% and 2.66% and 2.92% and 1.87%
same,% Recovered Dose - Feces per Day,"group E, feces day 7, Day 7 necropsy",2.11% and 1.97% and 2.22% and 1.18%
same,% Recovered Dose - Feces per Day,"group F, feces day 1, Day 7 necropsy",6.91% and 7.78% and 14.62% and 9.13%
same,% Recovered Dose - Feces per Day,"group F, feces day 2, Day 7 necropsy",14.25% and 13.00% and 16.24% and 15.40%
same,% Recovered Dose - Feces per Day,"group F, feces day 3, Day 7 necropsy",13.31% and 3.36% and 3.68% and 5.91%
same,% Recovered Dose - Feces per Day,"group F, feces day 4, Day 7 necropsy",4.17% and 4.09% and 3.98% and 3.52%
same,% Recovered Dose - Feces per Day,"group F, feces day 5, Day 7 necropsy",1.77% and 2.34% and 1.75% and 1.78%
same,% Recovered Dose - Feces per Day,"group F, feces day 6, Day 7 necropsy",1.60% and 2.84% and 1.72% and 1.54%
same,% Recovered Dose - Feces per Day,"group F, feces day 7, Day 7 necropsy",0.74% and 2.65% and 2.45% and 1.59%
